Measured values published in ChEMBL document CHEMBL1201862, “PubChem BioAssay data set” (2004).
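Step 1: Grow cells in 96-well plates. Step 2: Expose to compound for 48 hours at 5 concentrations. Step 3: Interpolate endpoints linearly; if unreached, use highest concentration. GI50 = concentration required for 50% inhibition of growth.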 Activity calls are given as the source filed them. Cut-off read from the data, not from the text of the source: active = GI50 up to about 1.1 µM and inactive = higher.

How the values were obtained:
Test in all cases: inhibition of tumour cell growth, NCI panel, 48 h
Hs-578T = test system: Hs-578T
BT-549 = test system: BT-549
SNB-78 = test system: SNB-78
XF498 = test system: XF498
KM-20L2 = test system: KM-20L2
LXFL 529 = test system: LXFL 529
HOP-18 = test system: HOP-18
DMS-114 = test system: DMS-114

CN(CCNC(=O)c1n[nH]c2c1Cc1ccccc1-2)CCNC(=O)c1n[nH]c2c1Cc1ccccc1-2
GI50 (Hs-578T): 25.3 µM (inactive)
GI50 (BT-549): 16.8 µM (inactive)

Cc1ccc(/C=C/C(=O)c2cccc3ccccc23)cc1
GI50 (SNB-78): 14.8 µM (inactive)
GI50 (XF498): 15.3 µM (inactive)
GI50 (KM-20L2): 15.8 µM (inactive)
GI50 (LXFL 529): 12.7 µM (inactive)

COC(=O)C1CCC(=O)N1C(c1cc(OC)c(OC)c(OC)c1)c1cc(OC)c(OC)c(OC)c1 (stereo not given)
GI50 (Hs-578T): > 100 µM (inactive)

CCOC(=O)NC(Nc1ccc(S(=O)(=O)Nc2nc(C)cc(C)n2)cc1)(C(=O)OCC)C(F)(F)F (stereo not given)
GI50 (Hs-578T): > 100 µM (inactive)
GI50 (BT-549): > 100 µM (inactive)

O=C1NC2C3CC(OCc4ccccc4)(OCc4ccccc4)C2OC3O1 (stereo not given)
GI50 (HOP-18): > 50 µM (inactive)
GI50 (SNB-78): < 0.005 µM (active)
GI50 (DMS-114): > 50 µM (inactive)
GI50 (XF498): > 50 µM (inactive)
GI50 (LXFL 529): < 0.005 µM (active)

O=C1CCC2(CC1CCSc1ccccc1)OCCO2 (stereo not given)
GI50 (Hs-578T): > 100 µM (inactive)

Cc1ccc(C2=CC(=O)/C(=C\C(=O)c3ccc(Br)cc3)O2)c(C)c1
GI50 (Hs-578T): 18.1 µM (inactive)
GI50 (BT-549): 7.03 µM (inactive)

O=C(O)CCC(NC(=O)c1ccc(Nc2nc3ccccc3nc2C(=O)O)cc1)C(=O)O (stereo not given)
GI50 (Hs-578T): > 100 µM (inactive)
GI50 (BT-549): > 100 µM (inactive)

CCOC(=O)c1[nH]c2c(OC)n[n+]([O-])cc2c1[N+](=O)[O-]
GI50 (HOP-18): 20.5 µM (inactive)
GI50 (SNB-78): 19.8 µM (inactive)
GI50 (DMS-114): 22.2 µM (inactive)
GI50 (XF498): 16.1 µM (inactive)
GI50 (KM-20L2): 15.5 µM (inactive)
GI50 (LXFL 529): 17.3 µM (inactive)

COc1cccc(/N=N/C(=N\NC(=O)c2ccc(C)cc2)c2ccc(N(CCC#N)CCC#N)cc2C)c1
GI50 (Hs-578T): 54.1 µM (inactive)
GI50 (BT-549): 71 µM (inactive)

C=C1CC(C)(c2cccc(Nc3nc4ccccc4c4occc34)c2)OC1=O (stereo not given)
GI50 (Hs-578T): 3.25 µM (inactive)
GI50 (BT-549): 4.85 µM (inactive)

CCCCNc1nc(NC2OCC(OC(C)=O)C(OC(C)=O)C2OC(C)=O)c(N=O)c(=O)n1C (stereo not given)
GI50 (Hs-578T): > 10 µM (inactive)
GI50 (BT-549): > 10 µM (inactive)

N=C(N)SCCON1C(=O)c2ccccc2C1=O
GI50 (Hs-578T): > 100 µM (inactive)
GI50 (BT-549): > 100 µM (inactive)

CN(C(=O)C12C3C4C5C3C1(C(=O)C13C6C7C8C6C1C8C73)C5C42)C(C)(C)C (stereo not given)
GI50 (HOP-18): > 50 µM (inactive)
GI50 (SNB-78): > 50 µM (inactive)
GI50 (DMS-114): > 23.6 µM (inactive)
GI50 (XF498): > 50 µM (inactive)
GI50 (KM-20L2): > 50 µM (inactive)
GI50 (LXFL 529): > 50 µM (inactive)

CC1=C(OC2OC(CO)C(O)C(O)C2O)C(=O)C[C@H]2C1=CC[C@@H]1[C@@]2(C)C(=O)C[C@]2(C)[C@@H]([C@@](C)(O)C(=O)CCC(C)(C)O)[C@H](O)C[C@@]12C (stereo not given in full)
GI50 (BT-549): > 100 µM (inactive)

Cc1ccc2nc(Cl)c(/C=N/N3C(=O)/C(=C/Cc4ccco4)N=C3c3ccccc3)cc2c1
GI50 (Hs-578T): 34.2 µM (inactive)
GI50 (BT-549): 29.7 µM (inactive)

CCCCCCCCCCCCCCCCCCNc1ccn(C2OC(COP(=O)(O)OC3CC(n4cc(F)c(=O)[nH]c4=O)OC3COP(=O)(O)OCC3OC(n4ccc(N)nc4=O)C(O)C3O)C(O)C2O)c(=O)n1 (stereo not given)
GI50 (Hs-578T): > 67.8 µM (inactive)
GI50 (BT-549): 15.1 µM (inactive)

CC1=NN=C(N)N/C1=C\C(Sc1ccc(Cl)cc1)c1ccc(Cl)cc1Cl (stereo not given)
GI50 (Hs-578T): 17.5 µM (inactive)
GI50 (BT-549): 20 µM (inactive)

NC(=O)c1ncn2c(=O)n(CCl)nnc12
GI50 (Hs-578T): > 100 µM (inactive)
GI50 (BT-549): > 100 µM (inactive)

Clc1ccc(C2=Nc3ccccc3SC(c3ccc(Cl)c(Cl)c3)C2)c(Cl)c1 (stereo not given)
GI50 (SNB-78): 18.3 µM (inactive)
GI50 (DMS-114): 9.89 µM (inactive)
GI50 (XF498): 12.4 µM (inactive)
GI50 (KM-20L2): 18.3 µM (inactive)
GI50 (LXFL 529): 15.3 µM (inactive)

CCCN(CCC)C(=O)c1c([N+](=O)[O-])cc(C(F)(F)F)cc1[N+](=O)[O-]
GI50 (SNB-78): 35.2 µM (inactive)
GI50 (KM-20L2): 22.6 µM (inactive)
GI50 (LXFL 529): 30.4 µM (inactive)

CCc1cccc(NC(=O)c2cc(/C=C/c3ccccc3)nc(S)n2)c1
GI50 (HOP-18): > 100 µM (inactive)
GI50 (SNB-78): > 100 µM (inactive)
GI50 (DMS-114): > 100 µM (inactive)
GI50 (KM-20L2): > 100 µM (inactive)
GI50 (LXFL 529): > 100 µM (inactive)

Cc1ccc(C)c(N2C(=O)C(=O)c3c(C)ccc(C)c32)c1
GI50 (Hs-578T): 22.4 µM (inactive)
GI50 (BT-549): 19.5 µM (inactive)

CC(NC(=O)OCc1ccccc1)NC(=O)C(CC(=O)OC(C)(C)C)NC(=O)OC(C)(C)C (stereo not given)
GI50 (Hs-578T): > 100 µM (inactive)
GI50 (BT-549): > 100 µM (inactive)

CCOC(=O)c1[nH]c2nc(SC)nc(NC)c2c1N
GI50 (Hs-578T): > 100 µM (inactive)
GI50 (BT-549): > 100 µM (inactive)

Clc1ccc(SCCCCCCCCCCSc2ccc(Cl)cc2)cc1
GI50 (HOP-18): > 100 µM (inactive)
GI50 (SNB-78): > 100 µM (inactive)
GI50 (DMS-114): > 100 µM (inactive)
GI50 (XF498): > 100 µM (inactive)
GI50 (KM-20L2): > 63.7 µM (inactive)
GI50 (LXFL 529): > 100 µM (inactive)

CC(C)C1=CC23CCC4C(C)(C(=O)O)CCCC4(C)C2CC1C1C(=O)N(c2cccc(N4C(=O)C5C6CC7C8(C)CCCC(C)(C(=O)O)C8CCC7(C=C6C(C)C)C5C4=O)c2)C(=O)C13 (stereo not given)
GI50 (Hs-578T): 3.77 µM (inactive)

COC1O[C@@H]2COC(C)(C)O[C@@H]2C(=O)N1Nc1ccc([N+](=O)[O-])cc1 (stereo not given in full)
GI50 (HOP-18): > 100 µM (inactive)
GI50 (XF498): > 100 µM (inactive)
GI50 (KM-20L2): > 100 µM (inactive)
GI50 (LXFL 529): 55.1 µM (inactive)

c1ccc2c(c1)OC(N1CCCC1)c1cnc(N3CCCC3)nc1-2 (stereo not given)
GI50 (Hs-578T): 30.5 µM (inactive)
GI50 (BT-549): 21.2 µM (inactive)

C[N+](C)(C)CCCCCc1c2nc(c(CCCCC[N+](C)(C)C)c3ccc([nH]3)c(CCCCC[N+](C)(C)C)c3nc(c(CCCCC[N+](C)(C)C)c4ccc1[nH]4)C=C3)C=C2
GI50 (Hs-578T): 56 µM (inactive)
GI50 (BT-549): > 100 µM (inactive)

O=[N+]([O-])c1ccc(-c2nnc(C34CC5CC(CC(C5)C3)C4)o2)cc1
GI50 (Hs-578T): > 100 µM (inactive)

CC(C)(Sc1cc(C(C)(C)C)c(O)c(C(C)(C)C)c1)Sc1cc(C(C)(C)C)c(O)c(C(C)(C)C)c1 [PROBUCOL]
GI50 (Hs-578T): > 100 µM (inactive)
GI50 (BT-549): > 100 µM (inactive)
